According to PubChem BioAssay (NCI):
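Method: 48-hour compound exposure of cells in 96-well plates, five concentrations, linear interpolation of endpoints. TGI: concentration producing complete growth inhibition.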

What follows are compounds tested on T-47D breast (assay: NCI-60 cell line screen, 48 h).

For `C[C@]12CC[C@H](O)CC1=CC[C@@H]1C2CC[C@]2(C)c3n[nH]nc3CC12` (some centres undefined), which TGI is on record?
Its TGI is > 100 µM.

Which TGI does the source give for `O=C1C=CC(=O)c2c1ccc1c3ccccc3n(CCCCCCCCn3c4ccccc4c4ccc5c(c43)C(=O)C=CC5=O)c21` here?
The TGI was > 100 µM.

With `N#CC[C@@H](O)COc1ccccc1` as the compound, how does the TGI read?
The TGI was > 100 µM.

For `C=C1C(=O)O[C@@H]2O[C@@]3(C)CC[C@H]4[C@H](C)CC[C@@H]1[C@@]24O3`, which TGI is on record?
Its TGI is 38.1 µM.

For `c1cc(-c2ccc(-c3ccc(-c4ccc(-c5cccc6nsnc56)[nH]4)c4nsnc34)[nH]2)c2nsnc2c1`, which TGI is on record?
Its TGI is > 100 µM.

These compounds were tested on NCI-H226 lung (assay: NCI-60 cell line screen, 48 h).

With `C[C@]12CC[C@H](O)CC1=CC[C@@H]1C2CC[C@]2(C)c3n[nH]nc3CC12` (some centres undefined) as the compound, how does the TGI read?
Its TGI is > 100 µM.

With `O=C1C=CC(=O)c2c1ccc1c3ccccc3n(CCCCCCCCn3c4ccccc4c4ccc5c(c43)C(=O)C=CC5=O)c21` as the compound, how does the TGI read?
The TGI was > 100 µM.

With `N#CC[C@@H](O)COc1ccccc1` as the compound, how does the TGI read?
The TGI was > 100 µM.

How did the TGI turn out when `C=C1C(=O)O[C@@H]2O[C@@]3(C)CC[C@H]4[C@H](C)CC[C@@H]1[C@@]24O3` was run?
The TGI was > 100 µM.

How did the TGI turn out when `c1cc(-c2ccc(-c3ccc(-c4ccc(-c5cccc6nsnc56)[nH]4)c4nsnc34)[nH]2)c2nsnc2c1` was run?
The TGI was > 100 µM.

These compounds were tested on OVCAR-8 ovarian (assay: NCI-60 cell line screen, 48 h).

For `C[C@]12CC[C@H](O)CC1=CC[C@@H]1C2CC[C@]2(C)c3n[nH]nc3CC12` (some centres undefined), which TGI is on record?
The TGI was > 100 µM.

With `O=C1C=CC(=O)c2c1ccc1c3ccccc3n(CCCCCCCCn3c4ccccc4c4ccc5c(c43)C(=O)C=CC5=O)c21` as the compound, how does the TGI read?
The TGI was > 100 µM.

Which TGI does the source give for `N#CC[C@@H](O)COc1ccccc1` here?
Its TGI is > 100 µM.

For `c1cc(-c2ccc(-c3ccc(-c4ccc(-c5cccc6nsnc56)[nH]4)c4nsnc34)[nH]2)c2nsnc2c1`, which TGI is on record?
The TGI was > 100 µM.

Each compound was assayed on HOP-62 NSCLC (assay: NCI-60 cell line screen, 48 h).

Which TGI does the source give for `C[C@]12CC[C@H](O)CC1=CC[C@@H]1C2CC[C@]2(C)c3n[nH]nc3CC12` (some centres undefined) here?
Its TGI is > 100 µM.

`O=C1C=CC(=O)c2c1ccc1c3ccccc3n(CCCCCCCCn3c4ccccc4c4ccc5c(c43)C(=O)C=CC5=O)c21` was tested. Which TGI did it give?
The TGI was > 100 µM.

With `N#CC[C@@H](O)COc1ccccc1` as the compound, how does the TGI read?
Its TGI is > 100 µM.

For `C=C1C(=O)O[C@@H]2O[C@@]3(C)CC[C@H]4[C@H](C)CC[C@@H]1[C@@]24O3`, which TGI is on record?
Its TGI is > 100 µM.

`c1cc(-c2ccc(-c3ccc(-c4ccc(-c5cccc6nsnc56)[nH]4)c4nsnc34)[nH]2)c2nsnc2c1` was tested. Which TGI did it give?
The TGI was > 100 µM.

The compounds below were run on MDA-N (assay: NCI-60 cell line screen, 48 h).

`C[C@]12CC[C@H](O)CC1=CC[C@@H]1C2CC[C@]2(C)c3n[nH]nc3CC12` (some centres undefined) was tested. Which TGI did it give?
Its TGI is > 100 µM.

`O=C1C=CC(=O)c2c1ccc1c3ccccc3n(CCCCCCCCn3c4ccccc4c4ccc5c(c43)C(=O)C=CC5=O)c21` was tested. Which TGI did it give?
The TGI was > 100 µM.

With `N#CC[C@@H](O)COc1ccccc1` as the compound, how does the TGI read?
Its TGI is > 100 µM.

`C=C1C(=O)O[C@@H]2O[C@@]3(C)CC[C@H]4[C@H](C)CC[C@@H]1[C@@]24O3` was tested. Which TGI did it give?
Its TGI is > 100 µM.

For `c1cc(-c2ccc(-c3ccc(-c4ccc(-c5cccc6nsnc56)[nH]4)c4nsnc34)[nH]2)c2nsnc2c1`, which TGI is on record?
The TGI was > 100 µM.

The compounds below were run on A498 renal (assay: NCI-60 cell line screen, 48 h).

With `C[C@]12CC[C@H](O)CC1=CC[C@@H]1C2CC[C@]2(C)c3n[nH]nc3CC12` (some centres undefined) as the compound, how does the TGI read?
The TGI was > 100 µM.

`O=C1C=CC(=O)c2c1ccc1c3ccccc3n(CCCCCCCCn3c4ccccc4c4ccc5c(c43)C(=O)C=CC5=O)c21` was tested. Which TGI did it give?
Its TGI is > 100 µM.

How did the TGI turn out when `N#CC[C@@H](O)COc1ccccc1` was run?
The TGI was > 100 µM.

`C=C1C(=O)O[C@@H]2O[C@@]3(C)CC[C@H]4[C@H](C)CC[C@@H]1[C@@]24O3` was tested. Which TGI did it give?
The TGI was > 100 µM.

The compounds below were run on SR leukemia (assay: NCI-60 cell line screen, 48 h).

For `C[C@]12CC[C@H](O)CC1=CC[C@@H]1C2CC[C@]2(C)c3n[nH]nc3CC12` (some centres undefined), which TGI is on record?
The TGI was 96.4 µM.

`N#CC[C@@H](O)COc1ccccc1` was tested. Which TGI did it give?
The TGI was > 100 µM.

With `C=C1C(=O)O[C@@H]2O[C@@]3(C)CC[C@H]4[C@H](C)CC[C@@H]1[C@@]24O3` as the compound, how does the TGI read?
The TGI was 47 µM.

What follows are compounds tested on HCT-116 colon (assay: NCI-60 cell line screen, 48 h).

For `C[C@]12CC[C@H](O)CC1=CC[C@@H]1C2CC[C@]2(C)c3n[nH]nc3CC12` (some centres undefined), which TGI is on record?
Its TGI is > 100 µM.

`O=C1C=CC(=O)c2c1ccc1c3ccccc3n(CCCCCCCCn3c4ccccc4c4ccc5c(c43)C(=O)C=CC5=O)c21` was tested. Which TGI did it give?
The TGI was > 100 µM.

Which TGI does the source give for `N#CC[C@@H](O)COc1ccccc1` here?
The TGI was > 100 µM.
